According to ChEMBL document CHEMBL3885861, “Open TG-GATES”:

Species on record: Rattus norvegicus
Test: Open TG-GATES - Regimen: Single
Assay type: toxicity, organism-based, Sprague-Dawley
Set-up: regimen Single, gender Male, age 6 weeks
Conditions: in vivo, iv, route intravenous injection; for Ca / Cl / DBIL / GLC / IP / K / LDH / Na / PL / RALB / TBIL / TC / TG / TP / gamma-GTP / A/G / ALP / ALT / AST / BUN / CRE: tissue Plasma; for APTT / Fbg / Hb / Ht / MCH / MCHC / MCV / PT / Plat / RBC / Ret / WBC: tissue Blood; for KIDNEY_L / KIDNEY_R / KIDNEY_TOTAL: tissue Kidney; for LIVER: tissue Liver
[1] = 3 mg/kg, 24 h, dose level Middle
[2] = 10 mg/kg, 24 h, dose level High

C[C@@H]1C[C@@H]([C@H](O)CC2CC(=O)NC(=O)C2)C(=O)[C@@H](C)C1 [CYCLOHEXIMIDE]
Ca [1]: 9.8 mg/dL
Cl [1]: 107.6 meq/L
DBIL [1]: 0.004 mg/dL
GLC [1]: 177 mg/dL
IP [1]: 7.3 mg/dL
K [1]: 4.4 meq/L
LDH [1]: 231 IU/L
Na [1]: 138.8 meq/L
PL [1]: 74 mg/dL
RALB [1]: 2.4 g/dL
TBIL [1]: 0.028 mg/dL
TC [1]: 38.4 mg/dL
TG [1]: 80 mg/dL
TP [1]: 4.2 g/dL
gamma-GTP [1]: 1.6 IU/L
TERMINAL_BW (10 mg/kg, 3 h, dose level High): 216.7 g
APTT (10 mg/kg, 3 h, dose level High): 24.3 s
Fbg (10 mg/kg, 3 h, dose level High): 301 mg/dL
Hb (10 mg/kg, 3 h, dose level High): 15.2 g/dL
Ht (10 mg/kg, 3 h, dose level High): 47.2%
MCH (10 mg/kg, 3 h, dose level High): 21 pg
MCHC (10 mg/kg, 3 h, dose level High): 32.3%
MCV (10 mg/kg, 3 h, dose level High): 65.2 fL
PT (10 mg/kg, 3 h, dose level High): 18.5 s
Plat (10 mg/kg, 3 h, dose level High): 133.4 x10_4/uL
RBC (10 mg/kg, 3 h, dose level High): 726.4 x10_4/ul
Ret (10 mg/kg, 3 h, dose level High): 9.6%
WBC (10 mg/kg, 3 h, dose level High): 375 x10_2/uL
KIDNEY_L (10 mg/kg, 3 h, dose level High): 1 g
KIDNEY_R (10 mg/kg, 3 h, dose level High): 1 g
KIDNEY_TOTAL (10 mg/kg, 3 h, dose level High): 2 g
LIVER (10 mg/kg, 3 h, dose level High): 9.2 g
A/G (10 mg/kg, 3 h, dose level High): 1.3
ALP (10 mg/kg, 3 h, dose level High): 1467 IU/L
ALT (10 mg/kg, 3 h, dose level High): 74 IU/L
AST (10 mg/kg, 3 h, dose level High): 314.6 IU/L
BUN (10 mg/kg, 3 h, dose level High): 41.4 mg/dL
CRE (10 mg/kg, 3 h, dose level High): 0.1 mg/dL
Ca (10 mg/kg, 3 h, dose level High): 9.8 mg/dL
Cl (10 mg/kg, 3 h, dose level High): 109 meq/L
DBIL (10 mg/kg, 3 h, dose level High): 0.006 mg/dL
GLC (10 mg/kg, 3 h, dose level High): 334.2 mg/dL
IP (10 mg/kg, 3 h, dose level High): 13.4 mg/dL
K (10 mg/kg, 3 h, dose level High): 5.1 meq/L
LDH (10 mg/kg, 3 h, dose level High): 1625.2 IU/L
Na (10 mg/kg, 3 h, dose level High): 140 meq/L
PL (10 mg/kg, 3 h, dose level High): 82.4 mg/dL
RALB (10 mg/kg, 3 h, dose level High): 3 g/dL
TBIL (10 mg/kg, 3 h, dose level High): 0.014 mg/dL
TC (10 mg/kg, 3 h, dose level High): 63.8 mg/dL
TG (10 mg/kg, 3 h, dose level High): 20 mg/dL
TP (10 mg/kg, 3 h, dose level High): 5.3 g/dL
gamma-GTP (10 mg/kg, 3 h, dose level High): 3.2 IU/L
TERMINAL_BW (10 mg/kg, 6 h, dose level High): 213.8 g
APTT (10 mg/kg, 6 h, dose level High): 31.7 s
Fbg (10 mg/kg, 6 h, dose level High): 270.2 mg/dL
Hb (10 mg/kg, 6 h, dose level High): 17.7 g/dL
Ht (10 mg/kg, 6 h, dose level High): 54.8%
MCH (10 mg/kg, 6 h, dose level High): 21.6 pg
MCHC (10 mg/kg, 6 h, dose level High): 32.3%
MCV (10 mg/kg, 6 h, dose level High): 66.8 fL
PT (10 mg/kg, 6 h, dose level High): 29.8 s
Plat (10 mg/kg, 6 h, dose level High): 131.6 x10_4/uL
RBC (10 mg/kg, 6 h, dose level High): 818.8 x10_4/ul
Ret (10 mg/kg, 6 h, dose level High): 8.7%
WBC (10 mg/kg, 6 h, dose level High): 396.9 x10_2/uL
KIDNEY_L (10 mg/kg, 6 h, dose level High): 1 g
KIDNEY_R (10 mg/kg, 6 h, dose level High): 1 g
KIDNEY_TOTAL (10 mg/kg, 6 h, dose level High): 2 g
LIVER (10 mg/kg, 6 h, dose level High): 7.9 g
A/G (10 mg/kg, 6 h, dose level High): 1.1
ALP (10 mg/kg, 6 h, dose level High): 1518.4 IU/L
ALT (10 mg/kg, 6 h, dose level High): 76.2 IU/L
AST (10 mg/kg, 6 h, dose level High): 315.8 IU/L
BUN (10 mg/kg, 6 h, dose level High): 69.4 mg/dL
CRE (10 mg/kg, 6 h, dose level High): 0.2 mg/dL
Ca (10 mg/kg, 6 h, dose level High): 7.2 mg/dL
Cl (10 mg/kg, 6 h, dose level High): 108.8 meq/L
DBIL (10 mg/kg, 6 h, dose level High): 0.002 mg/dL
GLC (10 mg/kg, 6 h, dose level High): 250.6 mg/dL
IP (10 mg/kg, 6 h, dose level High): 16.5 mg/dL
K (10 mg/kg, 6 h, dose level High): 6 meq/L
LDH (10 mg/kg, 6 h, dose level High): 1124 IU/L
Na (10 mg/kg, 6 h, dose level High): 138.8 meq/L
PL (10 mg/kg, 6 h, dose level High): 65 mg/dL
RALB (10 mg/kg, 6 h, dose level High): 2.8 g/dL
TBIL (10 mg/kg, 6 h, dose level High): 0.002 mg/dL
TC (10 mg/kg, 6 h, dose level High): 39 mg/dL
TG (10 mg/kg, 6 h, dose level High): 20.2 mg/dL
TP (10 mg/kg, 6 h, dose level High): 5.3 g/dL
gamma-GTP (10 mg/kg, 6 h, dose level High): 3.8 IU/L
TERMINAL_BW (10 mg/kg, 9 h, dose level High): 206.3 g
APTT (10 mg/kg, 9 h, dose level High): 47.2 s
Fbg (10 mg/kg, 9 h, dose level High): 228.4 mg/dL
Hb (10 mg/kg, 9 h, dose level High): 18.2 g/dL
Ht (10 mg/kg, 9 h, dose level High): 56.4%
MCH (10 mg/kg, 9 h, dose level High): 21.7 pg
MCHC (10 mg/kg, 9 h, dose level High): 32.3%
MCV (10 mg/kg, 9 h, dose level High): 67.4 fL
PT (10 mg/kg, 9 h, dose level High): 40.1 s
Plat (10 mg/kg, 9 h, dose level High): 112.8 x10_4/uL
RBC (10 mg/kg, 9 h, dose level High): 836.4 x10_4/ul
Ret (10 mg/kg, 9 h, dose level High): 8.9%
WBC (10 mg/kg, 9 h, dose level High): 386.2 x10_2/uL
KIDNEY_L (10 mg/kg, 9 h, dose level High): 1.1 g
KIDNEY_R (10 mg/kg, 9 h, dose level High): 1.1 g
KIDNEY_TOTAL (10 mg/kg, 9 h, dose level High): 2.1 g
LIVER (10 mg/kg, 9 h, dose level High): 7.9 g
A/G (10 mg/kg, 9 h, dose level High): 1.4
ALP (10 mg/kg, 9 h, dose level High): 1345.4 IU/L
ALT (10 mg/kg, 9 h, dose level High): 87.8 IU/L
AST (10 mg/kg, 9 h, dose level High): 291.8 IU/L
BUN (10 mg/kg, 9 h, dose level High): 94.4 mg/dL
CRE (10 mg/kg, 9 h, dose level High): 0.3 mg/dL
Ca (10 mg/kg, 9 h, dose level High): 6.6 mg/dL
Cl (10 mg/kg, 9 h, dose level High): 109 meq/L
DBIL (10 mg/kg, 9 h, dose level High): 0.0125 mg/dL
GLC (10 mg/kg, 9 h, dose level High): 215.2 mg/dL
IP (10 mg/kg, 9 h, dose level High): 17.4 mg/dL
K (10 mg/kg, 9 h, dose level High): 6.6 meq/L
LDH (10 mg/kg, 9 h, dose level High): 1399 IU/L
Na (10 mg/kg, 9 h, dose level High): 136 meq/L
PL (10 mg/kg, 9 h, dose level High): 69.6 mg/dL
RALB (10 mg/kg, 9 h, dose level High): 2.9 g/dL
TBIL (10 mg/kg, 9 h, dose level High): 0.01 mg/dL
TC (10 mg/kg, 9 h, dose level High): 34.4 mg/dL
TG (10 mg/kg, 9 h, dose level High): 61.4 mg/dL
TP (10 mg/kg, 9 h, dose level High): 5.2 g/dL
gamma-GTP (10 mg/kg, 9 h, dose level High): 3 IU/L
TERMINAL_BW [2]: 198.6 g
APTT [2]: 70.4 s
Fbg [2]: 149.5 mg/dL
Hb [2]: 16.4 g/dL
Ht [2]: 49.4%
MCH [2]: 20.9 pg
MCHC [2]: 33.3%
MCV [2]: 62.8 fL
PT [2]: 35.1 s
Plat [2]: 81.8 x10_4/uL
RBC [2]: 784.5 x10_4/ul
Ret [2]: 7.3%
WBC [2]: 413.2 x10_2/uL
KIDNEY_L [2]: 1 g
KIDNEY_R [2]: 1 g
KIDNEY_TOTAL [2]: 2 g
LIVER [2]: 8 g
A/G [2]: 1.3
ALP [2]: 903.5 IU/L
ALT [2]: 57.5 IU/L
AST [2]: 192 IU/L
BUN [2]: 106 mg/dL
CRE [2]: 0.3 mg/dL
Ca [2]: 7 mg/dL
Cl [2]: 112 meq/L
DBIL [2]: 0.02 mg/dL
GLC [2]: 134 mg/dL
IP [2]: 13.4 mg/dL
K [2]: 5.3 meq/L
LDH [2]: 1196.5 IU/L
Na [2]: 141.5 meq/L
PL [2]: 80 mg/dL
RALB [2]: 2.5 g/dL
TBIL [2]: 0.045 mg/dL
TC [2]: 59 mg/dL
TG [2]: 66.5 mg/dL
TP [2]: 4.5 g/dL
gamma-GTP [2]: 4 IU/L
